Literature values as cited in patent US20110159118A1, “Screening Method (Metabolite Grid) for Therapeutic Extracts and Molecules for Diabetes” (priority 2000, published 2011).

Tests used:
hyperglycemic rats = settings: effect comparable to metformin
[1] = test system: streptozotocin-diabetic mice; settings: doses of 3.4-13.4 mg/kg, 6 h after the administration

In the case of `Oc1cc(O)c2c(c1)O[C@H](c1ccc(O)c(O)c1)[C@H](O)C2` [(−)-Epicatechin, (−)-epicatechin], the “blood glucose levels, control versus treated rats” value (alloxan diabetic rats; 30 mg/kg, i.p., twice daily for 3 days, begun 92 hr after alloxan) is listed as “no significant difference” and the hyperglycemia (alloxan diabetic rats; given before or within 24 hr after the dose of alloxan) is listed as “reverse hyperglycemia”.

In the case of `COc1cc(O)cc2c1C(=O)C(O)(Cc1ccc(O)cc1)O2` (stereo not shown) [Marsupsin, marsupsin], the blood glucose level (hyperglycemic rats) is given as “significantly lowered”.

For gymnemic acid IV [Gymnemic acids], the “reduced the blood glucose levels” value [1] is listed as 13.5-60.0%.
